Measured values: the supplement of paper PMC13380429
± gives the standard deviation of the averaged measurements.

Key:
Conditions in all cases: 72 h
[1] = test system: Caco-2; assay: drug sensitivity score (DSS) for viability; higher = more toxic; extreme values may be limits of the assay
[2] = test system: Calu-3; assay: as above
[3] = test system: HepG2; assay: as above
[4] = test system: U2OS; assay: as above
[5] = test system: Vero E6; assay: as above
[6] = test system: Caco-2; assay: cell viability relative to DMSO; higher = less toxic
[7] = test system: Calu-3; assay: as above
[8] = test system: HepG2; assay: as above
[9] = test system: U2OS; assay: as above
[10] = test system: Vero E6; assay: as above
[11] = test system: Caco-2; assay: relative viability EC50 (midpoint between 100% and the lowest measured viability); higher = less toxic
[12] = test system: Calu-3; assay: as above
[13] = test system: HepG2; assay: as above
[14] = test system: U2OS; assay: as above
[15] = test system: Vero E6; assay: as above

| SMILES | drug sensitivity score [1] | drug sensitivity score [2] | drug sensitivity score [3] | drug sensitivity score [4] | drug sensitivity score [5] | cell viability ([6]; 1 nM) [%] | cell viability ([6]; 10 nM) [%] | cell viability ([6]; 100 nM) [%] | cell viability ([6]; 1000 nM) [%] | cell viability ([6]; 10000 nM) [%] | cell viability ([7]; 1 nM) [%] | cell viability ([7]; 10 nM) [%] | cell viability ([7]; 100 nM) [%] | cell viability ([7]; 1000 nM) [%] | cell viability ([7]; 10000 nM) [%] | cell viability ([8]; 1 nM) [%] | cell viability ([8]; 10 nM) [%] | cell viability ([8]; 100 nM) [%] | cell viability ([8]; 1000 nM) [%] | cell viability ([8]; 10000 nM) [%] | cell viability ([9]; 1 nM) [%] | cell viability ([9]; 10 nM) [%] | cell viability ([9]; 100 nM) [%] | cell viability ([9]; 1000 nM) [%] | cell viability ([9]; 10000 nM) [%] | cell viability ([10]; 1 nM) [%] | cell viability ([10]; 10 nM) [%] | cell viability ([10]; 100 nM) [%] | cell viability ([10]; 1000 nM) [%] | cell viability ([10]; 10000 nM) [%] | relative viability EC50 [11] [µM] | relative viability EC50 [12] [µM] | relative viability EC50 [13] [µM] | relative viability EC50 [14] [µM] | relative viability EC50 [15] [µM] |
| --- | --- | --- | --- | --- | --- | --- | --- | --- | --- | --- | --- | --- | --- | --- | --- | --- | --- | --- | --- | --- | --- | --- | --- | --- | --- | --- | --- | --- | --- | --- | --- | --- | --- | --- | --- |
| CCCCCn1cc(C(=O)NC23CC4CC(CC(C4)C2)C3)c(=O)c2cc(-c3ccccc3)ccc21 [COR-170] | 0 | 0 | 0 | 0 | 0 | 90.9 | 103 | 100 | 100 | 98.3 | 105 | 89.2 | 104 | 98.2 | 97 | 103 | 93.6 | 91 | 105 | 92.1 | 96.2 | 99.9 | 98.3 | 94.7 | 99.9 | 100 | 97.7 | 103 | 106 | 94.8 | > 10 | > 10 | > 10 | > 10 | > 10 |
| NC(=O)c1ccc(-c2nc(-c3ccc4c(c3)OCCO4)c(-c3ccccn3)[nH]2)cc1 [D-4476] | 0 | 0 | 0 | 0 | 0 | 93 | 95.1 | 92.4 | 92.8 | 98.6 | 84.4 | 101 | 96.1 | 108 | 98.8 | 105 | 103 | 96.3 | 96 | 105 | 96.1 | 97.9 | 96.7 | 99.5 | 91.9 | 102 | 93.4 | 100 | 106 | 106 | > 10 | > 10 | > 10 | > 10 | > 10 |
| CN1CCN(C(=O)O[C@H]2c3nccnc3C(=O)N2c2ccc(Cl)cn2)CC1 [ESZOPICLONE] | 0 | 0 | 0 | 0 | 0 | 93.8 | 98.3 | 94.3 | 98.6 | 100 | 109 | 106 | 91.2 | 104 | 99.6 | 97.2 | 95.2 | 92.8 | 102 | 101 | 98.3 | 87.6 | 99.5 | 98.3 | 96.6 | 97.3 | 101 | 93.6 | 97.2 | 111 | > 10 | > 10 | > 10 | > 10 | > 10 |
| NC(=O)c1cccc(-c2cc(Nc3ccc(OC(F)(F)F)cc3)ncn2)c1 [GNF-2] | 1.3 | 0.5 | 1.3 | 0 | 0 | 102 | 102 | 104 | 87.1 | 83.7 | 104 | 103 | 97.9 | 90.3 | 86.6 | 108 | 99.6 | 93.4 | 96.4 | 77.3 | 103 | 99.2 | 99.1 | 102 | 103 | 104 | 99 | 94.6 | 106 | 102 | > 10 | > 10 | > 10 | > 10 | > 10 |
| O=S(=O)(Cc1ccccc1)Nc1ccc(-c2ccc3c(cnn3-c3ccc(F)cc3)c2)c(C(F)(F)F)c1 [GSK9027] | 0.4 | 0 | 0.1 | 0 | 0 | 90.8 | 98.6 | 99.7 | 97.7 | 85.5 | 103 | 105 | 97.6 | 92.2 | 97.1 | 96 | 94.4 | 95.3 | 104 | 86.3 | 94.7 | 93.7 | 100 | 95.9 | 93.7 | 96 | 94.2 | 91.1 | 95.2 | 110 | > 10 | > 10 | > 10 | > 10 | > 10 |
| CCOC(=O)C1=C(N)Oc2ccc(Br)cc2C1C(C#N)C(=O)OCC (stereo not given) [HA-14-1] | 0 | 0 | 0 | 0 | 0 | 99 ± 3.9 | 95.2 ± 4.1 | 104 ± 4.9 | 99.7 ± 4.6 | 99.5 ± 5 | 95.2 ± 7.3 | 105 ± 8.6 | 97 ± 0.99 | 98.2 ± 4.5 | 108.6 ± 0.14 | 100 ± 2.5 | 97.3 ± 9.6 | 98.2 ± 4.7 | 95.7 ± 7.4 | 96.8 ± 7.7 | 95 | 99.9 | 99 | 101 | 110 | 93 | 100 | 90 | 97.7 | 99.3 | > 10 | > 10 | > 10 | > 10 | > 10 |
| N[C@@H](Cc1ccc(O)cc1)C(=O)NCC(=O)NCC(=O)O [IMREG-1] | 0 | 0 | 0.1 | 0 | 0 | 98.2 | 91.6 | 103 | 91.3 | 97.1 | 102 | 99.5 | 101 | 98.5 | 108 | 101 | 102 | 92 | 103 | 86.8 | 104 | 95 | 97.6 | 93.5 | 102 | 90.7 | 96.8 | 92.6 | 97.9 | 89.8 | > 10 | > 10 | > 10 | > 10 | > 10 |
| CC(=O)NCCC(=O)N[C@@H](Cc1c[nH]cn1)C(=O)O [N-acetylcarnosine] | 0 | 0 | 0 | 0 | 0 | 97.3 | 105 | 88.7 | 86.5 | 112 | 106 | 99.2 | 94.5 | 101 | 96.3 | 98.8 | 88.3 | 93.3 | 96.2 | 87.9 | 98 | 101 | 101 | 97.5 | 94.7 | 112 | 92.1 | 102 | 108 | 98.4 | > 10 | > 10 | > 10 | > 10 | > 10 |
| O=C(O)c1cc([N+](=O)[O-])ccc1NCCCc1ccccc1 [NPPB] | 0 | 0 | 0 | 0 | 0 | 102 | 87.7 | 93.5 | 95.5 | 94.5 | 99.7 | 105 | 101 | 114 | 96.2 | 91.7 | 101 | 97.5 | 102 | 99.9 | 101 | 98.3 | 100 | 96.4 | 94.8 | 94.9 | 98.3 | 90.5 | 94 | 105 | > 10 | > 10 | > 10 | > 10 | > 10 |
| N#Cc1ccc(NCCNCC(=O)N2CCC[C@H]2C#N)nc1 [NVP-DPP728] | 0 | 0 | 0 | 0 | 0 | 96.6 | 100 | 97.1 | 106 | 104 | 101 | 92.1 | 96.5 | 104 | 110 | 112 | 98.6 | 102 | 97.3 | 106 | 96.2 | 98.3 | 101 | 102 | 99.4 | 97.5 | 97.8 | 90.3 | 91.6 | 104 | > 10 | > 10 | > 10 | > 10 | > 10 |
| CCCCCCCCCCCCCCCC(=O)C(F)(F)F [PACOCF3] | 0 | 0 | 0 | 0 | 0 | 101 | 98.6 | 104 | 92.3 | 96.8 | 99.6 | 93.5 | 91.2 | 83.2 | 102 | 99.6 | 108 | 102 | 104 | 105 | 107 | 103 | 106 | 97.2 | 102 | 101 | 101 | 96.6 | 102 | 101 | > 10 | > 10 | > 10 | > 10 | > 10 |
| Oc1ccc(-c2c(-c3ccccc3)nn3c(C(F)(F)F)cc(C(F)(F)F)nc23)cc1 [PHTPP] | 0 | 0 | 0 | 0 | 0 | 104 | 100 | 99.1 | 102 | 95.9 | 98.5 | 94.6 | 97.4 | 91.3 | 113 | 104 | 95.5 | 83.4 | 103 | 88.7 | 99.5 | 96.5 | 102 | 99.2 | 100 | 105 | 109 | 95.8 | 105 | 96.5 | > 10 | > 10 | > 10 | > 10 | > 10 |
| C[C@]12CC[C@H](O)CC1=CC[C@@H]1[C@@H]2CC[C@]2(C)C(=O)CC[C@@H]12 [PRASTERONE] | 0 | 0 | 0 | 0 | 0 | 96.8 | 99.4 | 91.4 | 100 | 92.6 | 94.9 | 81.2 | 98.3 | 96.6 | 108 | 104 | 101 | 94.2 | 92.3 | 92.2 | 97.4 | 102 | 102 | 97.5 | 100 | 99.5 | 101 | 98.7 | 98.7 | 95.2 | > 10 | > 10 | > 10 | > 10 | > 10 |
